Here are results for one compound from publication PMC8399847, “Hybrid Quinolinyl Phosphonates as Heterocyclic Carboxylate Isosteres: Synthesis and Biological Evaluation against Topoisomerase 1B (TOP1B)” (Pharmaceuticals, 2021).

Common to all, as to format: cell-based
For series [1], the system named is A549 (human lung adenocarcinoma cells). Nature of the series: CCK-8 cytotoxicity assay, A549. To be noted: A549, 48 h, CCK-8, 50% growth inhibition, read-out: Cytotoxicity IC50 Lung A549. Here is the method: (§1) The cytotoxicity of the newly synthesized quinolinylphosphonates 7 was evaluated in vitro by testing their antiproliferative activities against several human cancer cell lines: A549 (human lung adenocarcinoma cells), SKOV3 (human ovarian carcinoma), and HEK293 (human embryonic kidney). In order to analyze the selective cytotoxicity facing exclusively cancerous cell lines, cytotoxicity against non-cancerous cell lines (MRC-5, lung fibroblast cells) was also evaluated. Cell counting kit (CCK-8) assay was employed to assess growth inhibition and, cell proliferation inhibitory activities of compounds that are listed in Table 1 as IC50 values. […] According to the data presented in Table 1, in general, all these phosphorated derivatives present higher selective cytotoxicity in the A549 cell line than in the other two cell lines, SKOV3 and HEK293, although slight differences are observed compared to human ovarian carcinoma (SKOV3).
(§2) Cells were cultured according to the supplier’s instructions, A549 (ATCC® CCL-185), SKOV3 (ATCC® HTB-77), HEK293 (CLS GmbH), MRC-5 (ATCC® CCL-171™). Cells were seeded in 96-well plates at a density of 2–2.5 × 10^3 cells per well and incubated overnight in 0.1 mL of media supplied with 10% Fetal Bovine Serum (Lonza, Basel, Switzerland) in a 5% CO2 incubator at 37 °C. On day 2, drugs (concentration between 0.5–50 μM) were added and samples were incubated for 48 h. After treatment, 10 μL of cell counting kit-8 was added to each well for an additional 2 h incubation at 37 °C. The absorbance of each well was determined by an Automatic Elisa Reader System at 450 nm wavelength. CPT was purchased from Sigma-Aldrich and used as a positive control.
(Tetrazolium assays rely on reduction of a dye to a coloured formazan, in cell work by metabolically active cells.)

Series [2] is described as follows: CCK-8 cytotoxicity assay, MRC-5 non-cancerous cells. To be noted: human, MRC-5 non-malignant lung fibroblast cells, MRC-5 non-malignant lung fibroblasts. The method, then: as §1, §2
Series [3] deals with SKOV3 (human ovarian carcinoma). Nature of the series: CCK-8 cytotoxicity assay, SKOV3. To be noted: SK-OV-3, SKOV3, 48 h, CCK-8, 50% growth inhibition, read-out: Cytotoxicity IC50 Ovarian SKOV3. Here is the method:
as §1, §2

As usually defined, the IC50 is the concentration needed to halve the response being measured.

As for `CC[C@@]1(O)C(=O)OCc2c1cc1n(c2=O)Cc2cc3ccccc3nc2-1` [CPT, Camptothecin, reference compound], the IC50 is 1 nM in series [1] and 5.5 nM in series [3]. Besides, in series [2], the midpoint of inhibition, the IC50 at 48 h, lay at 0.017 nM.
